For the assay, the target named is T1, methionine aminopeptidase-2 (MetAP2) (Homo sapiens, UniProt P50579).
T1 construct: made in house; host or cells: insect cells, baculovirus system (secreted, purified from culture supernatant)
Put plainly: Inhibition of MetAP2 enzyme activity (96-well, Met-Ala-Ser substrate, L-amino acid oxidase/peroxidase/ortho-dianisidine, 450 nm). The format is biochemical. The conditions noted are these: IC50, recombinant MetAP2 4 μg/mL, pH 7.4, Met-Ala-Ser substrate, 20 minutes. On the procedure:
The ability of compounds of the present invention to inhibit methionine aminopeptidase 2 was evaluated using the following assay.
Assays for MetAP2 enzyme activity and MetAP2 inhibition were performed in 96-well microtiter plates. Compounds to be tested for MetAP2 inhibition were dissolved in dimethyl-sulfoxide at 10 mM and diluted ten-fold in assay buffer ([…], pH 7.4, 100 mM NaCl). Ten microliters of solution of each compound to be tested for inhibition were introduced into each cell of the plate, with each compound being tested in triplicate.
The absorbence at 450 nanometers was measured every 20 seconds over a period of twenty minutes using an automaic plate reader (Molecular Devices, CA, USA). The Vmax in mOD/min, calculated for each well was used to represent MetAP2 activity. The IC50 for each inhibitor was obtained by plotting the remaining MetAP2 activity versus inhibitor concentration.

Where a name gives a salt, the structure may show the parent alone.

T1 sequence (P50579 whole entry): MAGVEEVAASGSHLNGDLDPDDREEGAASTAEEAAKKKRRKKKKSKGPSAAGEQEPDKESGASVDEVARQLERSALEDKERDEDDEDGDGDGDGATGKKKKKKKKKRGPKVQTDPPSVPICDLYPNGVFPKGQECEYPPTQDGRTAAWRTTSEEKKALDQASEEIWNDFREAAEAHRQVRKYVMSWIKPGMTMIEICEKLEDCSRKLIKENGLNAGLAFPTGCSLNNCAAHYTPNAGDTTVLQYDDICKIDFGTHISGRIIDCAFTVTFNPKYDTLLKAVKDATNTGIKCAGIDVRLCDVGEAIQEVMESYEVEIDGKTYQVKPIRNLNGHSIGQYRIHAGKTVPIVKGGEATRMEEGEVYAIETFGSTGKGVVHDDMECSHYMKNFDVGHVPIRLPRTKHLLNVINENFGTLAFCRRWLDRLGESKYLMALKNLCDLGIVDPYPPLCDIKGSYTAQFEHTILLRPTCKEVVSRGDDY

For `N[C@H](CC1CCCCC1)C(O)C(=O)Nc1cccc(Cl)c1` (mixture of isomers) [Example 148, (2RS,3R)-3-amino-N-(3-chlorophenyl)-4-cyclohexyl-2-hydroxybutanamide], the IC50 came to 520 nM.
Consider `N[C@H](CC1CCCCC1)C(O)C(=O)Nc1ccccc1Cl` (mixture of isomers) [Example 149, (2RS,3R)-3-amino-N-(2-chlorophenyl)-4-cyclohexyl-2-hydroxybutanamide], for which the IC50 was determined as 930 nM.
Take `N[C@H](CC1CCCCC1)C(O)C(=O)Nc1cccc(C(F)(F)F)c1` (mixture of isomers) [Example 151, (2RS,3R)-3-amino-4-cyclohexyl-2-hydroxy-N-(3-(trifluoromethyl)phenyl)butanamide]: the IC50 stood at 430 nM.
Take `N[C@H](CC1CCCCC1)C(O)C(=O)Nc1ccc(C(F)(F)F)cc1` (mixture of isomers) [Example 152, (2RS,3R)-3-amino-4-cyclohexyl-2-hydroxy-N-(4-(trifluoromethyl)phenyl)butanamide]: the IC50 turned out to be 2400 nM.
To `N[C@H](CC1CCCCC1)C(O)C(=O)Nc1ccc(Cl)c(Cl)c1` (mixture of isomers) [Example 153, (2RS,3R)-3-amino-4-cyclohexyl-N-(3,4-dichlorophenyl)-2-hydroxybutanamide] belongs 370 nM; to `N[C@H](CC1CCCCC1)C(O)C(=O)Nc1ccc(Cl)cc1Cl` (mixture of isomers) [Example 154, (2RS,3R)-3-amino-4-cyclohexyl-N-(2,4-dichlorophenyl)-2-hydroxybutanamide], 1900 nM; to `N[C@H](CC1CCCCC1)C(O)C(=O)NCc1ccc(C(F)(F)F)cc1` (mixture of isomers) [Example 158, (2RS,3R)-3-amino-4-cyclohexyl-2-hydroxy-N-(4-(trifluoromethyl)benzyl)butanamide], 2800 nM.
To `N[C@H](CC1CCCCC1)C(O)C(=O)NCc1ccccc1Cl` (mixture of isomers) [Example 159, (2RS,3R)-3-amino-N-(2-chlorobenzyl)-4-cyclohexyl-2-hydroxybutanamide] belongs 1500 nM.
For the compound `COc1ccc([N+](=O)[O-])cc1NC(=O)C(O)[C@H](N)CC1CCCCC1` (mixture of isomers) [Example 160, (2RS,3R)-3-amino-4-cyclohexyl-2-hydroxy-N-(2-methoxy-5-nitrophenyl)butanamide hydrochloride], the IC50 was found to be 900 nM.
In the case of `COc1cc(NC(=O)C(O)[C@H](N)CC2CCCCC2)cc(OC)c1` (mixture of isomers) [Example 161, (2RS,3R)-3-amino-4-cyclohexyl-N-(3,5-dimethoxyphenyl)-2-hydroxybutanamide hydrochloride] it was 620 nM; in that of `N[C@H](CC1CCCCC1)C(O)C(=O)Nc1cccc(Oc2ccccc2)c1` (mixture of isomers) [Example 162, (2RS,3R)-3-amino-4-cyclohexyl-2-hydroxy-N-(3-phenoxyphenyl)butanamide hydrochloride], 1200 nM; in that of `N[C@H](CC1CCCCC1)C(O)C(=O)NCCc1cccc(F)c1` (mixture of isomers) [Example 166, (2RS,3R)-3-amino-4-cyclohexyl-N-(3-fluorophenethyl)-2-hydroxybutanamide hydrochloride], 590 nM.
To `N[C@H](CC1CCCCC1)C(O)C(=O)NCCc1ccc(OCc2ccccc2)c(OCc2ccccc2)c1` (mixture of isomers) [Example 167, (2RS,3R)-3-amino-N-(3,4-bis(benzyloxy)phenethyl)-4-cyclohexyl-2-hydroxybutanamide hydrochloride] belongs 3300 nM; to `N[C@H](CC1CCCCC1)C(O)C(=O)NCCc1ccc(Oc2ccccc2)cc1` (mixture of isomers) [Example 168, (2RS,3R)-3-amino-4-cyclohexyl-2-hydroxy-N-(4-phenoxyphenethyl)butanamide hydrochloride], 1500 nM; to `N[C@H](CC1CCCCC1)C(O)C(=O)Nc1cccc(OC(F)(F)F)c1` (mixture of isomers) [Example 170, (2RS,3R)-3-amino-4-cyclohexyl-2-hydroxy-N-(3-(trifluoromethoxy)phenyl)butanamide hydrochloride], 1000 nM.
For the compound `Cc1ccccc1NC(=O)C(O)[C@H](N)CC1CCCCC1` (mixture of isomers) [Example 171, (2RS,3R)-3-amino-4-cyclohexyl-2-hydroxy-N-(2-methylphenyl)butanamide hydrochloride], the IC50 was 950 nM.
To `Cc1cccc(C)c1NC(=O)C(O)[C@H](N)CC1CCCCC1` (mixture of isomers) [Example 172, (2RS,3R)-3-amino-4-cyclohexyl-N-(2,6-dimethylphenyl)-2-hydroxybutanamide hydrochloride] belongs 5000 nM; to `Cc1cc(I)ccc1NC(=O)C(O)[C@H](N)CC1CCCCC1` (mixture of isomers) [Example 173, (2RS,3R)-3-amino-4-cyclohexyl-2hydroxy-N-(4-iodo-2-methylphenyl)butanamide hydrochloride], 580 nM; to `COc1cc(Nc2ccccc2)ccc1NC(=O)C(O)[C@H](N)CC1CCCCC1` (mixture of isomers) [Example 174, (2RS,3R)-3-amino-N-(4-anilino-2-methoxyphenyl)-4-cyclohexyl-2-hydroxybutanamide hydrochloride], 1500 nM.
On to `CCOc1ccccc1NC(=O)C(O)[C@H](N)CC1CCCCC1` (mixture of isomers) [Example 175, (2RS,3R)-3-amino-4-cyclohexyl-N-(2-ethoxyphenyl)-2-hydroxybutanamide hydrochloride], for which the IC50 was 2100 nM.
As to `COc1cc(Cl)c(C)cc1NC(=O)C(O)[C@H](N)CC1CCCCC1` (mixture of isomers) [Example 176, (2RS,3R)-3-amino-N-(4-chloro-2-methoxy-5-methylphenyl)-4-cyclohexyl-2-hydroxybutanamide hydrochloride], the IC50 worked out at 3400 nM.
To `COc1ccc(OC)c(NC(=O)C(O)[C@H](N)CC2CCCCC2)c1` (mixture of isomers) [Example 177, (2RS,3R)-3-amino-4cyclohexyl-N-(2,5-dimethoxyphenyl)-2-hydroxybutanamide hydrochloride] belongs 2000 nM.
To `COc1ccc(NC(C)=O)cc1NC(=O)C(O)[C@H](N)CC1CCCCC1` (mixture of isomers) [Example 178, (2RS,3R)-N-(5-(acetylamino)-2-methoxyphenyl)-3-amino-4-cyclohexyl-2-hydroxybutanamide hydrochloride] belongs 11000 nM.
In the case of `COc1cc2c(cc1NC(=O)C(O)[C@H](N)CC1CCCCC1)oc1ccccc12` (mixture of isomers) [Example 179, (2RS,3R)-3-amino-4-cyclohexyl-2-hydroxy-N-(2-methoxydibenzo(b,d)furan-3-yl)butanamide hydrochloride] it was 4900 nM; in that of `COc1cc(OC)c(NC(=O)C(O)[C@H](N)CC2CCCCC2)cc1Cl` (mixture of isomers) [Example 180, (2RS,3R)-3-amino-N-(5-chloro-2,4-dimethoxyphenyl)-4-cyclohexyl-2-hydroxybutanamide hydrochloride], 2000 nM.

Values taken from patent publication US6242494A, “Substituted β-amino acid inhibitors of methionine aminopeptidase-2” (Abbott Laboratories, priority 1999, dated 2001).
